Data as given in patent publication US11524966B1 (Valo Early Discovery, Inc., priority 2017, dated 2022).

Each compound was assayed against T1, USP25 (USP25-His6, Boston Biochem E-546) (Homo sapiens, UniProt Q9UHP3) (assay: Ubiquitin-Rhodamine 110 Assay for USP25 Activity, Example A-2). Details: Ubiquitin-Rhodamine 110 assay, Example A-2; read-out: USP25 A-2 IC50 range.
T1 construct: His6; purchased Boston Biochem E-546
T1 sequence (Q9UHP3 1-1055): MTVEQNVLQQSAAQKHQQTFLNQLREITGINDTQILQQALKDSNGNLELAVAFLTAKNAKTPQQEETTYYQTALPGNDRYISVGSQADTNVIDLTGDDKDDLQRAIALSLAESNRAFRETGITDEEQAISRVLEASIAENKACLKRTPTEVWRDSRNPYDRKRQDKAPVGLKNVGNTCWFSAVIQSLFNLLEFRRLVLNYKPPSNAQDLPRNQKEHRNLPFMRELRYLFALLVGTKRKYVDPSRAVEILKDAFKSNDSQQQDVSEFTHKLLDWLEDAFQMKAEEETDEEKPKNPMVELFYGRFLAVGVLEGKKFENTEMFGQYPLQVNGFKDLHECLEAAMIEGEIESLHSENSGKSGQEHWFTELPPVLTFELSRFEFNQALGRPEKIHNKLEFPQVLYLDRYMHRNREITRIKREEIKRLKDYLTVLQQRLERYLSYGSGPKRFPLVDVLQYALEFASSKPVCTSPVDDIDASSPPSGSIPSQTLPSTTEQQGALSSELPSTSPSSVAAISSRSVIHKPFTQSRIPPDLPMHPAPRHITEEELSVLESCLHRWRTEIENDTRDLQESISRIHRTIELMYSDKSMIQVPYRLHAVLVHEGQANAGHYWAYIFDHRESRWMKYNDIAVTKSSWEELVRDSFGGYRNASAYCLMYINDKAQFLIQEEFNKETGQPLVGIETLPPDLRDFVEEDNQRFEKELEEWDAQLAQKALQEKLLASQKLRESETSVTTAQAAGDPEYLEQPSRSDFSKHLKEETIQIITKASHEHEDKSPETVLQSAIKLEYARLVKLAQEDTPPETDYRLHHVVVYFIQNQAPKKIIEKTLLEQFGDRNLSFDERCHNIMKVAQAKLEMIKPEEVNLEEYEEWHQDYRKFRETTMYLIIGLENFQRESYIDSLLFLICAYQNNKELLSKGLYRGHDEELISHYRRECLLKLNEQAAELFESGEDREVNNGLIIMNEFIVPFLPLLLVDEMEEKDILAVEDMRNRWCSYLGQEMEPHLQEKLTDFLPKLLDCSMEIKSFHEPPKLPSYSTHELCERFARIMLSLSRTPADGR
Type: biochemical
Method in brief: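 Fluorescence (ex 485, em 535 nm) of cleaved ubiquitin-rhodamine 110 (25 nM, below Km) gave IC50 via 4-parameter logistic fit. Reaction: 45 min, room temperature, citric acid stop, after 30 min compound preincubation with 75 pM USP25-His6 in 20 mM Tris pH 8.0, 3 mM BME, 0.03% BGG, 0.01% Triton X-100; top dose 25 μM.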

SMILES | IC50
Cc1ccc2c(N)c(C(=O)N[C@H]3CCc4cc(N5CCNCC5)c(F)c(F)c4C3)sc2n1 [Example 417, 3-amino-N-[(2S)-7,8-difluoro-6-(piperazin-1-yl)-1,2,3,4-tetrahydronaphthalen-2-yl]-6-methylthieno[2,3-b]pyridine-2-carboxamide] | > 2000 nM
Cc1ccc2c(N)c(C(=O)N[C@@H]3CCc4cc(N5CCNCC5)c(F)c(F)c4C3)sc2n1 [Example 418, 3-amino-N-[(2R)-7,8-difluoro-6-(piperazin-1-yl)-1,2,3,4-tetrahydronaphthalen-2-yl]-6-methylthieno[2,3-b]pyridine-2-carboxamide] | 200 to 2000 nM
Cc1cnc2c(N)c(C(=O)N[C@H]3CCc4cc(N5CC6CNCC(C5)O6)ccc4C3)sc2n1 [Example 448, N-((2S)-6-(9-oxa-3,7-diazabicyclo[3.3.1]nonan-3-yl)-1,2,3,4-tetrahydronaphthalen-2-yl)-7-amino-3-methylthieno[2,3-b]pyrazine-6-carboxamide] | 200 to 2000 nM
Cc1cnc2c(N)c(C(=O)N[C@@H]3CCc4cc(N5CC6CNCC(C5)O6)ccc4C3)sc2n1 [Example 450, N-((2R)-6-(9-oxa-3,7-diazabicyclo[3.3.1]nonan-3-yl)-1,2,3,4-tetrahydronaphthalen-2-yl)-7-amino-3-methylthieno[2,3-b]pyrazine-6-carboxamide] | > 2000 nM
Cc1ccc2c(N)c(C(=O)N[C@@H]3CCc4cc(N5CC6CNCC(C5)O6)ccc4C3)sc2n1 [Example 451, N-((2R)-6-(9-oxa-3,7-diazabicyclo[3.3.1]nonan-3-yl)-1,2,3,4-tetrahydronaphthalen-2-yl)-3-amino-6-methylthieno[2,3-b]pyridine-2-carboxamide] | 200 to 2000 nM
Cc1cnc2c(N)c(C(=O)N[C@@H]3CCc4cc(N5CCCNCC5)ccc4C3)sc2n1 [Example 452, (R)-N-(6-(1,4-diazepan-1-yl)-1,2,3,4-tetrahydronaphthalen-2-yl)-7-amino-3-methylthieno[2,3-b]pyrazine-6-carboxamide] | > 2000 nM
Cc1cnc2c(N)c(C(=O)N[C@H]3CCc4cc(N5CCCNCC5)ccc4C3)sc2n1 [Example 455, (S)-N-(6-(1,4-diazepan-1-yl)-1,2,3,4-tetrahydronaphthalen-2-yl)-7-amino-3-methylthieno[2,3-b]pyrazine-6-carboxamide] | 200 to 2000 nM
Cc1cnc2c(N)c(C(=O)N[C@H]3CCc4cc(N5CC6COCC(C5)N6)ccc4C3)sc2n1 [Example 456, N-((2S)-6-(3-oxa-7,9-diazabicyclo[3.3.1]nonan-7-yl)-1,2,3,4-tetrahydronaphthalen-2-yl)-7-amino-3-methylthieno[2,3-b]pyrazine-6-carboxamide] | > 2000 nM
Cc1cccc2c(C(=O)N[C@H]3COc4cc(N5CCNCC5)ccc4C3)cnn12 [Example 458, (R)-7-methyl-N-(7-(piperazin-1-yl)chroman-3-yl)pyrazolo[1,5-a]pyridine-3-carboxamide] | 200 to 2000 nM
CC(=O)N1CCCc2cc(C(=O)N[C@H]3COc4cc(N5CCNCC5)ccc4C3)ccc21 [Example 459, (R)-1-acetyl-N-(7-(piperazin-1-yl)chroman-3-yl)-1,2,3,4-tetrahydroquinoline-6-carboxamide] | > 2000 nM
O=C(N[C@H]1COc2cc(N3CCNCC3)ccc2C1)c1cnn2ccccc12 [Example 460, (R)-N-(7-(piperazin-1-yl)chroman-3-yl)pyrazolo[1,5-a]pyridine-3-carboxamide] | > 2000 nM
COc1ccn2ncc(C(=O)N[C@H]3COc4cc(N5CCNCC5)ccc4C3)c2c1 [Example 461, (R)-5-methoxy-N-(7-(piperazin-1-yl)chroman-3-yl)pyrazolo[1,5-a]pyridine-3-carboxamide] | > 2000 nM
O=C(N[C@H]1COc2cc(N3CCNCC3)ccc2C1)c1cnn2cc(Cl)ccc12 [Example 462, (R)-6-chloro-N-(7-(piperazin-1-yl)chroman-3-yl)pyrazolo[1,5-a]pyridine-3-carboxamide] | > 2000 nM
Cc1cc(C)n2ncc(C(=O)N[C@H]3COc4cc(N5CCNCC5)ccc4C3)c2n1 [Example 463, (R)-5,7-dimethyl-N-(7-(piperazin-1-yl)chroman-3-yl)pyrazolo[1,5-a]pyrimidine-3-carboxamide] | > 2000 nM
O=C(N[C@H]1COc2cc(N3CCNCC3)ccc2C1)c1cn2nc(Cl)ccc2n1 [Example 464, (R)-6-chloro-N-(7-(piperazin-1-yl)chroman-3-yl)imidazo[1,2-b]pyridazine-2-carboxamide] | > 2000 nM
Cc1ccn2ncc(C(=O)N[C@H]3COc4cc(N5CCNCC5)ccc4C3)c2c1 [Example 465, (R)-5-methyl-N-(7-(piperazin-1-yl)chroman-3-yl)pyrazolo[1,5-a]pyridine-3-carboxamide] | > 2000 nM
O=C(N[C@H]1COc2cc(N3CCNCC3)ccc2C1)c1cnn2cccnc12 [Example 466, (R)-N-(7-(piperazin-1-yl)chroman-3-yl)pyrazolo[1,5-a]pyrimidine-3-carboxamide] | > 2000 nM
O=C(N[C@H]1COc2cc(N3CCNCC3)ccc2C1)c1ccc(NCc2cccnc2)nc1 [Example 468, (R)-N-(7-(piperazin-1-yl)chroman-3-yl)-6-((pyridin-3-ylmethyl)amino)nicotinamide] | > 2000 nM
O=C(N[C@H]1COc2cc(N3CCNCC3)ccc2C1)c1ccc(NCc2cccc(C(F)(F)F)c2)nc1 [Example 469, (R)-N-(7-(piperazin-1-yl)chroman-3-yl)-6-((3-(trifluoromethyl)benzyl)amino)nicotinamide] | 50 to 200 nM
O=C(N[C@H]1COc2cc(N3CCNCC3)ccc2C1)c1ccc(NCc2ccccn2)nc1 [Example 470, (R)-N-(7-(piperazin-1-yl)chroman-3-yl)-6-((pyridin-2-ylmethyl)amino)nicotinamide] | > 2000 nM
O=C(N[C@H]1COc2cc(N3CCNCC3)ccc2C1)c1ccc(NCc2ccc3c(c2)OCCO3)nc1 [Example 471, (R)-6-(((2,3-dihydrobenzo[b][1,4]dioxin-6-yl)methyl)amino)-N-(7-(piperazin-1-yl)chroman-3-yl)nicotinamide] | 200 to 2000 nM
O=C(N[C@H]1COc2cc(N3CCNCC3)ccc2C1)c1ccc(NCc2ccc3c(c2)CCO3)nc1 [Example 472, (R)-6-(((2,3-dihydrobenzofuran-5-yl)methyl)amino)-N-(7-(piperazin-1-yl)chroman-3-yl)nicotinamide] | 200 to 2000 nM
CC(=O)Nc1cccc(CNc2ccc(C(=O)N[C@H]3COc4cc(N5CCNCC5)ccc4C3)cn2)c1 [Example 473, (R)-6-((3-acetamidobenzyl)amino)-N-(7-(piperazin-1-yl)chroman-3-yl)nicotinamide] | > 2000 nM
CCc1cccc2c(C(=O)N[C@H]3COc4cc(N5CCNCC5)ccc4C3)cnn12 [Example 474, 7-ethyl-N-[(3R)-7-(piperazin-1-yl)-3,4-dihydro-2H-1-benzopyran-3-yl]pyrazolo[1,5-a]pyridine-3-carboxamide] | 200 to 2000 nM
O=C(N[C@H]1COc2cc(N3CCNCC3)ccc2C1)c1cnn2c(CO)cccc12 [Example 475, 7-(hydroxymethyl)-N-[(3R)-7-(piperazin-1-yl)-3,4-dihydro-2H-1-benzopyran-3-yl]pyrazolo[1,5-a]pyridine-3-carboxamide] | > 2000 nM
